Data as given in US7256268B1, “Human high affinity choline transporter” (University of Florida Research Foundation, priority 2000, dated 2007).

How the values were obtained:
human HACT = target: T1, human HACT (Homo sapiens, UniProt Q9GZV3); test: transporter assay for high affinity choline uptake (tritiated choline chloride) in transfected or infected cells; assay type: cell-based; conditions: 10 nM of Hemicholinium-3; cells expressing recombinant human HACT (FIG. 1: SF9 cells), 27° C., 30 min
T1 construct: expressed in transfected cells; host or cells: 293, HELA and SF9 cells (pcDNA, AAV proviral and baculoviral vectors)
T1 sequence (Q9GZV3 1-580): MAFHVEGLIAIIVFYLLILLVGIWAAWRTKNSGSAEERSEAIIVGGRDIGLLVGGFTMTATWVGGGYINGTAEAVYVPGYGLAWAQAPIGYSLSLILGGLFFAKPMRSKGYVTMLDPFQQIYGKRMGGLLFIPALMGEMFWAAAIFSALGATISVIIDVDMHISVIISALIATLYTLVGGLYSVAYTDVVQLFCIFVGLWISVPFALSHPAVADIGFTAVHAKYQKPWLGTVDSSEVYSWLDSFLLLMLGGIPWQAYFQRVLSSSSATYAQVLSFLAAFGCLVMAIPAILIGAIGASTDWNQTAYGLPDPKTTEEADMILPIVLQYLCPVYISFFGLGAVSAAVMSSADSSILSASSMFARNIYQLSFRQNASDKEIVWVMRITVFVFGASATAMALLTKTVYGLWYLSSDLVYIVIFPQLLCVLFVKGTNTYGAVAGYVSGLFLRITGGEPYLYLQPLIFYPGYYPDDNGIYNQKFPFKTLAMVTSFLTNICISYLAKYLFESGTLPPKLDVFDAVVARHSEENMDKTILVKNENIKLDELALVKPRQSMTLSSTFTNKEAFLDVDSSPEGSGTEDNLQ
Method: A transporter assay for high affinity choline uptake was carried out using 293, HELA, and SF9 cells that had been transfected or infected with expression vectors (several eukaryotic expression vectors including pcDNA, AAV proviral vector, and Baculoviral vectors were used) either with or without a cDNA encoding human HACT. Briefly, 2×10^5 cells were incubated with tritiated choline chloride and various amounts of Hemicholinium-3 in 500 microliter media (20 mM HEPES, pH 7.4, 140 mM NaCl, 4 mM KCl, 1 mM MgCl2, 1 mM CaCl2) at 27° C. for 30 min in each transporter assay. The cells were then pelleted and washed three times before they were solublized in 1N NaOH and the tritium content determined by liquid scintillation counting. […] Furthermore, the HACT activity was sensitive to 10 nM of Hemicholinium-3, which is characteristic of high affinity choline transporter. See e.g. Okuda et al. Nat. Neurosci. 3:120-5 (2000).

[1] = tested on: low affinity choline transporter, LACT; conditions: synaptosome preparations; cited from earlier work

**Q.** What does the source list for `C[N+]1(C)CCOC(O)(c2ccc(-c3ccc(C4(O)C[N+](C)(C)CCO4)cc3)cc2)C1.[Br-].[Br-]` (centres unmarked) [hemicholinium-3]?
**A.** sensitivity of HACT activity to Hemicholinium-3 (human HACT): sensitive; sensitivity of the low affinity uptake system to hemicholinium-3 [1]: insensitive
